In ChEMBL document CHEMBL1201862, “PubChem BioAssay data set” (2004):
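Interpolation was linear, between the two tested concentrations surrounding the appropriate level; five concentrations were tested over 48 hours in 96-well plates. GI50 = concentration required for 50% inhibition of growth.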 Active and inactive are the calls of the source. Cut-off read from the data, not from the text of the source: active = GI50 up to about 1.1 µM and inactive = higher.

Key:
Assay in all cases: NCI anticancer screen, dose series, 48 h
MOLT-4 = system: MOLT-4
IGROV-1 = system: IGROV-1
SW-620 = system: SW-620
OVCAR-4 = system: OVCAR-4
HOP-62 = system: HOP-62
CCRF-CEM = system: CCRF-CEM
MDA-MB-435 = system: MDA-MB-435
HL-60 = system: HL-60
HCT-15 = system: HCT-15
A549 = system: A549
LOX IMVI = system: LOX IMVI
M14 = system: M14
UO-31 = system: UO-31
MDA-MB-231 = system: MDA-MB-231
Malme-3M = system: Malme-3M
BT-549 = system: BT-549
UACC-257 = system: UACC-257
MCF7 = system: MCF7
PC-3 = system: PC-3
U-251 = system: U-251
SF-295 = system: SF-295
SK-MEL-2 = system: SK-MEL-2
CAKI-1 = system: CAKI-1
SNB-75 = system: SNB-75
SN12C = system: SN12C
MDA-N = system: MDA-N
OVCAR-8 = system: OVCAR-8
SF-539 = system: SF-539
OVCAR-3 = system: OVCAR-3
HT-29 = system: HT-29
DU-145 = system: DU-145
SK-OV-3 = system: SK-OV-3
HCC 2998 = system: HCC 2998
SR = system: SR
NCI-H23 = system: NCI-H23
RPMI-8226 = system: RPMI-8226
OVCAR-5 = system: OVCAR-5
RXF 393 = system: RXF 393
TK-10 = system: TK-10
COLO 205 = system: COLO 205
SK-MEL-28 = system: SK-MEL-28
A498 = system: A498
UACC-62 = system: UACC-62
NCI-H226 = system: NCI-H226
SNB-19 = system: SNB-19
T47D = system: T47D
HOP-92 = system: HOP-92
NCI-H522 = system: NCI-H522
786-0 = system: 786-0
Hs-578T = system: Hs-578T
NCI/ADR-RES = system: NCI/ADR-RES
KM12 = system: KM12
SK-MEL-5 = system: SK-MEL-5
SF-268 = system: SF-268
HCT-116 = system: HCT-116
EKVX = system: EKVX
ACHN = system: ACHN
K562 = system: K562
NCI-H460 = system: NCI-H460

With C/C=C/COc1cc(NC(=S)c2ccoc2C)ccc1OC the GI50 (MOLT-4) was > 100 µM (inactive), the GI50 (IGROV-1) was 55.2 µM (inactive) and the GI50 (SW-620) was > 100 µM (inactive). For the same compound, the GI50 (OVCAR-4) was 23 µM (inactive), the GI50 (HOP-62) was 34.7 µM (inactive) and the GI50 (CCRF-CEM) was > 100 µM (inactive). The GI50 (MDA-MB-435) was > 100 µM (inactive), the GI50 (HL-60) was 60.3 µM (inactive) and the GI50 (HCT-15) was > 100 µM. For the same compound, the GI50 (A549) was > 100 µM (inactive), the GI50 (LOX IMVI) was > 100 µM (inactive) and the GI50 (M14) was > 100 µM (inactive). The GI50 (UO-31) was 61.4 µM (inactive), the GI50 (MDA-MB-231) was 29.5 µM (inactive) and the GI50 (Malme-3M) was 89.1 µM (inactive). The GI50 (BT-549) was > 100 µM (inactive), the GI50 (UACC-257) was > 100 µM (inactive) and the GI50 (MCF7) was > 100 µM (inactive). The GI50 (PC-3) was > 100 µM (inactive), the GI50 (U-251) was 51.4 µM (inactive) and the GI50 (SF-295) was 77.8 µM (inactive). The GI50 (SK-MEL-2) was > 100 µM (inactive), the GI50 (CAKI-1) was 25.6 µM (inactive) and the GI50 (SNB-75) was 27.7 µM (inactive). For the same compound, the GI50 (SN12C) was 62.1 µM (inactive), the GI50 (MDA-N) was > 100 µM (inactive) and the GI50 (OVCAR-8) was 57.9 µM (inactive). For the same compound, the GI50 (SF-539) was 76.7 µM (inactive), the GI50 (OVCAR-3) was 50.2 µM (inactive) and the GI50 (HT-29) was > 100 µM (inactive). For the same compound, the GI50 (DU-145) was 71.1 µM (inactive), the GI50 (SK-OV-3) was 61.1 µM (inactive) and the GI50 (HCC 2998) was > 100 µM (inactive). The GI50 (SR) was > 100 µM (inactive), the GI50 (NCI-H23) was > 100 µM (inactive) and the GI50 (RPMI-8226) was 23 µM (inactive). For the same compound, the GI50 (OVCAR-5) was > 100 µM (inactive), the GI50 (RXF 393) was > 100 µM (inactive) and the GI50 (TK-10) was 97.1 µM (inactive). The GI50 (COLO 205) was > 100 µM (inactive), the GI50 (SK-MEL-28) was > 100 µM (inactive) and the GI50 (A498) was 49.3 µM (inactive). For the same compound, the GI50 (UACC-62) was > 100 µM (inactive), the GI50 (NCI-H226) was > 100 µM (inactive) and the GI50 (SNB-19) was 26.7 µM (inactive). The GI50 (T47D) was 43.3 µM (inactive), the GI50 (HOP-92) was 16.7 µM (inactive) and the GI50 (NCI-H522) was 66.1 µM (inactive). For the same compound, the GI50 (786-0) was 75.3 µM (inactive), the GI50 (Hs-578T) was 34 µM (inactive) and the GI50 (NCI/ADR-RES) was 39.4 µM (inactive). The GI50 (KM12) was > 100 µM (inactive), the GI50 (SK-MEL-5) was 48.9 µM (inactive) and the GI50 (SF-268) was 44.3 µM (inactive). For the same compound, the GI50 (HCT-116) was > 100 µM (inactive) and the GI50 (EKVX) was 49.8 µM (inactive).

In the case of C=CCc1cc(C(Cc2ccccc2)NC(C)C)cc(OCc2ccccc2)c1OCc1ccccc1 (stereo not given), the GI50 (MOLT-4) is reported as 10.7 µM (inactive), the GI50 (IGROV-1) is reported as 15.8 µM (inactive) and the GI50 (SW-620) is reported as 18.2 µM (inactive). For the same compound, the GI50 (OVCAR-4) was 17.4 µM (inactive), the GI50 (HOP-62) was 15.9 µM (inactive) and the GI50 (CCRF-CEM) was 15.9 µM (inactive). For the same compound, the GI50 (MDA-MB-435) was 15.7 µM (inactive), the GI50 (HL-60) was 14.5 µM (inactive) and the GI50 (HCT-15) was 16.3 µM. For the same compound, the GI50 (A549) was 16.7 µM (inactive), the GI50 (LOX IMVI) was 14.8 µM (inactive) and the GI50 (M14) was 15.3 µM (inactive). For the same compound, the GI50 (UO-31) was 10.1 µM (inactive), the GI50 (MDA-MB-231) was 15 µM (inactive) and the GI50 (Malme-3M) was 15.5 µM (inactive). The GI50 (BT-549) was 17.3 µM (inactive), the GI50 (UACC-257) was 18.8 µM (inactive) and the GI50 (MCF7) was 17.3 µM (inactive). For the same compound, the GI50 (PC-3) was 15.3 µM (inactive), the GI50 (U-251) was 14.3 µM (inactive) and the GI50 (SF-295) was 17.8 µM (inactive). For the same compound, the GI50 (SK-MEL-2) was 18.6 µM (inactive), the GI50 (CAKI-1) was 15.7 µM (inactive) and the GI50 (SNB-75) was 13.2 µM (inactive). For the same compound, the GI50 (SN12C) was 15.6 µM (inactive), the GI50 (MDA-N) was 13.2 µM (inactive) and the GI50 (OVCAR-8) was 17 µM (inactive). For the same compound, the GI50 (ACHN) was 16.9 µM (inactive), the GI50 (SF-539) was 15.2 µM (inactive) and the GI50 (OVCAR-3) was 16.7 µM (inactive). The GI50 (HT-29) was 15.1 µM (inactive), the GI50 (DU-145) was 16.2 µM (inactive) and the GI50 (SK-OV-3) was 14 µM (inactive). The GI50 (HCC 2998) was 13.7 µM (inactive), the GI50 (SR) was 12.2 µM (inactive) and the GI50 (NCI-H23) was 18.8 µM (inactive). The GI50 (K562) was 16.8 µM (inactive), the GI50 (RPMI-8226) was 12.9 µM (inactive) and the GI50 (OVCAR-5) was 19.1 µM (inactive). For the same compound, the GI50 (RXF 393) was 14.4 µM (inactive), the GI50 (NCI-H460) was 15 µM (inactive) and the GI50 (TK-10) was 17.1 µM (inactive). The GI50 (COLO 205) was 17.3 µM (inactive), the GI50 (SK-MEL-28) was 16.4 µM (inactive) and the GI50 (A498) was 15.3 µM (inactive). The GI50 (UACC-62) was 15.1 µM (inactive), the GI50 (NCI-H226) was 17.7 µM (inactive) and the GI50 (SNB-19) was 15.3 µM (inactive). The GI50 (T47D) was 14.5 µM (inactive), the GI50 (HOP-92) was 12.5 µM (inactive) and the GI50 (NCI-H522) was 15.3 µM (inactive). For the same compound, the GI50 (786-0) was 16.6 µM (inactive), the GI50 (Hs-578T) was 18 µM (inactive) and the GI50 (NCI/ADR-RES) was 16.3 µM (inactive). For the same compound, the GI50 (KM12) was 20.7 µM (inactive), the GI50 (SK-MEL-5) was 16.6 µM (inactive) and the GI50 (SF-268) was 16 µM (inactive). For the same compound, the GI50 (HCT-116) was 16.4 µM (inactive) and the GI50 (EKVX) was 16.2 µM (inactive).
